In ChEMBL document CHEMBL4483862, “Open-source discovery of chemical leads for next-generation chemoprotective antimalarials” (2018):

System: Plasmodium berghei
Test: Luciferase/luciferin-expressing antifolate-resistant parasites were used to infect a culture of HepG2 cells that were pre-incubated with compounds. Infected hepatocytes emit light due to the luciferase reaction. Assay results are presented as the percent inhibition of light emission compared to control. […]
Type: functional
Details: sporozoite; for IC90: read-out: LUCIFERASE INFECTION ASSAY - IC90

Row | Structure (SMILES) | IC90 [µM] | also measured
1 | Cc1ccc(C(=O)OCC(=O)c2cc(C)n(-c3cccc(C(F)(F)F)c3)c2C)cc1NC(=O)c1ccco1 | > 10 | IC50 (FFLUC_HILL_SLOPE 14.7, FFLUC_R_SQUARED 0.458, read-out: LUCIFERASE INFECTION ASSAY - IC50): > 10 µM
2 | CSc1nccc(-c2ccsc2)n1 | > 15.8 | IC50 (FFLUC_HILL_SLOPE 14.6, FFLUC_R_SQUARED 0.758, read-out: LUCIFERASE INFECTION ASSAY - IC50): > 15.8 µM
3 | c1cnc(N2CCN(CCCNc3ncnc4sccc34)CC2)nc1 | > 10 | IC50 (FFLUC_HILL_SLOPE 14.8, FFLUC_R_SQUARED 0.258, HEPG2TOX_HILL_SLOPE 2.5, HEPG2TOX_R_SQUARED 0.964, PBLUC_HILL_SLOPE 9.27, PBLUC_R_SQUARED 0.473, read-out: LUCIFERASE INFECTION ASSAY - IC50): 8.5 µM
4 | COc1ccc(Nc2n[nH]c(NC(=O)Cc3c(Cl)cccc3Cl)c2C#N)cc1 | 0.506 | IC50 (FFLUC_HILL_SLOPE 14.5, FFLUC_R_SQUARED 0.631, HEPG2TOX_HILL_SLOPE 1.37, HEPG2TOX_R_SQUARED 0.939, PBLUC_HILL_SLOPE 1.1, PBLUC_R_SQUARED 0.834, read-out: LUCIFERASE INFECTION ASSAY - IC50): 0.069 µM
5 | Cc1cc(C(=O)CN2C(=O)NC(C)(C3CC3)C2=O)c(C)n1C(c1ccccc1)c1ccccc1 (stereo not given) | 6.7 | IC50 (FFLUC_HILL_SLOPE 14.7, FFLUC_R_SQUARED 0.253, PBLUC_HILL_SLOPE 1.67, PBLUC_R_SQUARED 0.756, read-out: LUCIFERASE INFECTION ASSAY - IC50): 1.8 µM
6 | N#Cc1ccc(/C=C(\c2nc3ccccc3[nH]2)c2nc3ccccc3s2)cc1 | 1.53 | IC50 (FFLUC_HILL_SLOPE 15, FFLUC_R_SQUARED 0.447, HEPG2TOX_HILL_SLOPE 15.3, HEPG2TOX_R_SQUARED 0.806, PBLUC_HILL_SLOPE 8.27, PBLUC_R_SQUARED 0.505, read-out: LUCIFERASE INFECTION ASSAY - IC50): 1.17 µM
7 | CC1(C(=O)NCCC(F)(F)F)Cc2c(-c3ccc4c(c3)OCO4)ccnc2O1 (stereo not given) | 6.15 | IC50 (FFLUC_HILL_SLOPE 14.8, FFLUC_R_SQUARED 0.74, HEPG2TOX_HILL_SLOPE 2.73, HEPG2TOX_R_SQUARED 0.858, PBLUC_HILL_SLOPE 3.16, PBLUC_R_SQUARED 0.521, read-out: LUCIFERASE INFECTION ASSAY - IC50): 3.07 µM
8 | CC(C)(C)c1cc(NC(=O)COc2ccc3[nH]c4ccccc4c(=O)c3c2)n(-c2ccccc2)n1 | 0.752 | IC50 (FFLUC_HILL_SLOPE 14.6, FFLUC_R_SQUARED 0.0178, PBLUC_HILL_SLOPE 1.61, PBLUC_R_SQUARED 0.936, read-out: LUCIFERASE INFECTION ASSAY - IC50): 0.192 µM
9 | Fc1ccc(/N=c2\scc(-c3ccc4c(c3)OCCO4)n2C2CCCC2)cc1 | 1.58 | IC50 (FFLUC_HILL_SLOPE 15, FFLUC_R_SQUARED 0.34, HEPG2TOX_HILL_SLOPE 7.4, HEPG2TOX_R_SQUARED 0.523, PBLUC_HILL_SLOPE 11.6, PBLUC_R_SQUARED 0.501, read-out: LUCIFERASE INFECTION ASSAY - IC50): 1.31 µM
10 | Cc1onc(-c2c(Cl)cccc2Cl)c1-c1nc(-c2cc(-c3ccccc3)c(C(F)(F)F)s2)cs1 | > 6.14 | IC50 (FFLUC_HILL_SLOPE 14.8, FFLUC_R_SQUARED 0.219, HEPG2TOX_HILL_SLOPE 0.104, HEPG2TOX_R_SQUARED 0.184, PBLUC_HILL_SLOPE 1.63, PBLUC_R_SQUARED 0.31, read-out: LUCIFERASE INFECTION ASSAY - IC50): > 6.14 µM
11 | O=C(N/N=C/c1cccc(O)c1O)c1ccc(CN2c3cccc4cccc(c34)S2(=O)=O)cc1 | > 10 | IC50 (FFLUC_HILL_SLOPE 14.9, FFLUC_R_SQUARED 0.808, read-out: LUCIFERASE INFECTION ASSAY - IC50): > 10 µM
12 | Cc1ccc(/N=C2\SCC(C)N2C(=O)c2ccccc2SCC(=O)NCC2CCCCC2)c(C)c1 (stereo not given) | > 10 | IC50 (FFLUC_HILL_SLOPE 15, FFLUC_R_SQUARED 0.0481, HEPG2TOX_HILL_SLOPE 2.13, HEPG2TOX_R_SQUARED 0.879, PBLUC_HILL_SLOPE 4.29, PBLUC_R_SQUARED 0.235, read-out: LUCIFERASE INFECTION ASSAY - IC50): 8.13 µM
13 | Cc1ccc(CNc2ccc3nnc(C(F)(F)F)n3n2)cc1 | > 10 | IC50 (FFLUC_HILL_SLOPE 15, FFLUC_R_SQUARED 0.243, read-out: LUCIFERASE INFECTION ASSAY - IC50): > 10 µM
14 | O=C(NC1CCCc2ccccc21)c1cc(-c2cccs2)nn1-c1ccccc1 (stereo not given) | > 10 | IC50 (FFLUC_HILL_SLOPE 14.9, FFLUC_R_SQUARED 0.608, PBLUC_HILL_SLOPE 2.01, PBLUC_R_SQUARED 0.0278, read-out: LUCIFERASE INFECTION ASSAY - IC50): 6.82 µM
15 | CC1=C(C(=O)OC2CCC(C)CC2)C(c2ccc(C)cc2)NC(=O)N1 (stereo not given) | > 9.64 | IC50 (FFLUC_HILL_SLOPE 14.5, FFLUC_R_SQUARED 0.355, read-out: LUCIFERASE INFECTION ASSAY - IC50): > 9.64 µM
16 | Nc1nc(CNC(c2ccccc2)c2ccc(Cl)cc2)nc(Nc2ccccc2)n1 (stereo not given) | > 10 | IC50 (FFLUC_HILL_SLOPE 14.9, FFLUC_R_SQUARED 0.741, read-out: LUCIFERASE INFECTION ASSAY - IC50): > 10 µM
17 | Cc1onc(-c2ccc(Cl)cc2)c1-c1ccnc(SCC(=O)c2ccc([N+](=O)[O-])cc2)n1 | > 7.07 | IC50 (FFLUC_HILL_SLOPE 14.7, FFLUC_R_SQUARED 0.642, read-out: LUCIFERASE INFECTION ASSAY - IC50): > 7.07 µM
18 | COc1ccc(Cl)cc1N1C(=O)/C(=C\c2sccc2C)N=C1SCc1cc(=O)n2ccsc2n1 | > 10 | IC50 (FFLUC_HILL_SLOPE 14.8, FFLUC_R_SQUARED 0.288, PBLUC_HILL_SLOPE 0.636, PBLUC_R_SQUARED 0.525, read-out: LUCIFERASE INFECTION ASSAY - IC50): 2.55 µM
19 | COc1c(Cl)cc(Br)c(OC)c1C(=O)NC(=O)Nc1cc(C(F)(F)F)cc(C(F)(F)F)c1 | 2.27 | IC50 (FFLUC_HILL_SLOPE 14.8, FFLUC_R_SQUARED 0.569, HEPG2TOX_HILL_SLOPE 7.93, HEPG2TOX_R_SQUARED 0.303, PBLUC_HILL_SLOPE 13, PBLUC_R_SQUARED 0.4, read-out: LUCIFERASE INFECTION ASSAY - IC50): 1.92 µM
20 | CC(C(OC(=O)c1ccc(S(=O)(=O)N(C)C)cc1)c1ccccc1)N(C)S(=O)(=O)c1ccc(Cl)cc1 (stereo not given) | > 10 | IC50 (FFLUC_HILL_SLOPE 14.7, FFLUC_R_SQUARED 0.389, PBLUC_HILL_SLOPE 2.36, PBLUC_R_SQUARED 0.776, read-out: LUCIFERASE INFECTION ASSAY - IC50): 7.17 µM
21 | COc1ccc(-c2cc(NC(=O)Cc3ccc(S(=O)(=O)N4CCCC4)s3)ccc2OC)cc1 | 4.64 | IC50 (FFLUC_HILL_SLOPE 14.7, FFLUC_R_SQUARED 0.565, HEPG2TOX_HILL_SLOPE 10.6, HEPG2TOX_R_SQUARED 0.932, PBLUC_HILL_SLOPE 12.2, PBLUC_R_SQUARED 0.78, read-out: LUCIFERASE INFECTION ASSAY - IC50): 3.88 µM
22 | COc1ccc(-c2csc3ncnc(NC4CCN(S(C)(=O)=O)CC4)c23)cc1 | > 10 | IC50 (FFLUC_HILL_SLOPE 15, FFLUC_R_SQUARED 0.503, HEPG2TOX_HILL_SLOPE 1.74, HEPG2TOX_R_SQUARED 0.848, read-out: LUCIFERASE INFECTION ASSAY - IC50): > 10 µM
23 | COc1cc([N+](=O)[O-])ccc1NC(=O)COC(=O)c1c(C)nn(Cc2ccc(Cl)cc2Cl)c1Cl | > 10 | IC50 (FFLUC_HILL_SLOPE 15, FFLUC_R_SQUARED 0.28, read-out: LUCIFERASE INFECTION ASSAY - IC50): > 10 µM
24 | CCCCNC(=O)c1c(NC(=O)c2ccc(Cl)cc2)nc2ccccn12 | 3 | IC50 (FFLUC_HILL_SLOPE 14.7, FFLUC_R_SQUARED 0.115, HEPG2TOX_HILL_SLOPE 1.94, HEPG2TOX_R_SQUARED 0.747, PBLUC_HILL_SLOPE 14.3, PBLUC_R_SQUARED 0.4, read-out: LUCIFERASE INFECTION ASSAY - IC50): 2.58 µM
25 | Cc1ccc(-n2ncc(Cl)c(Cl)c2=O)cc1 | > 12.9 | IC50 (FFLUC_HILL_SLOPE 14.5, FFLUC_R_SQUARED 0.489, HEPG2TOX_HILL_SLOPE 2.71, HEPG2TOX_R_SQUARED 0.789, PBLUC_HILL_SLOPE 3.3, PBLUC_R_SQUARED 0.431, read-out: LUCIFERASE INFECTION ASSAY - IC50): 8.02 µM
26 | O=C(CSc1nnnn1-c1ccccc1)N1N=C2/C(=C/c3ccc(F)cc3)CCCC2C1c1ccc(F)cc1 (stereo not given) | > 10 | IC50 (FFLUC_HILL_SLOPE 14.4, FFLUC_R_SQUARED 0.768, PBLUC_HILL_SLOPE 7.48, PBLUC_R_SQUARED 0.336, read-out: LUCIFERASE INFECTION ASSAY - IC50): 8.21 µM
27 | O=C1C=CC(=O)N1c1ccc(-c2csnn2)cc1 | > 12.8 | IC50 (FFLUC_HILL_SLOPE 14.6, FFLUC_R_SQUARED 0.441, read-out: LUCIFERASE INFECTION ASSAY - IC50): > 12.8 µM
28 | c1ccc(-c2ccc(C3=Nc4ccccc4SC(c4ccco4)C3)cc2)cc1 (stereo not given) | 4.75 | IC50 (FFLUC_HILL_SLOPE 14.5, FFLUC_R_SQUARED 0.557, PBLUC_HILL_SLOPE 1.32, PBLUC_R_SQUARED 0.568, read-out: LUCIFERASE INFECTION ASSAY - IC50): 0.903 µM
29 | Cc1ccc(CNCc2nc(NCc3ccc(C)cc3)c3c(C)c(C)sc3n2)cc1 | 4.22 | IC50 (FFLUC_HILL_SLOPE 14.5, FFLUC_R_SQUARED 0.473, HEPG2TOX_HILL_SLOPE 357, HEPG2TOX_R_SQUARED 0.506, PBLUC_HILL_SLOPE 12.5, PBLUC_R_SQUARED 0.0149, read-out: LUCIFERASE INFECTION ASSAY - IC50): 3.54 µM
30 | COc1ccc(-n2cnnc2SCC(=O)NC(=O)NC2CCCC2)cc1 | > 10 | IC50 (FFLUC_HILL_SLOPE 14.6, FFLUC_R_SQUARED 0.0899, read-out: LUCIFERASE INFECTION ASSAY - IC50): > 10 µM
